Test results from patent US20100249138A1, “MPZP: A SMALL MOLECULE CORTICOTROPIN-RELEASING FACTOR TYPE 1 RECEPTOR (CRF1) ANTOGONIST” (priority 2007, published 2010).
“Also recorded” adds a separate entry of the source.

Experiments:
[1] = test system: 62 other receptors, transporters, and ion channels; experiment: Novascreen side-effect potential screening assay (GEN SEP I panel); type: binding; conditions: 10 μM
Description: Specificity of MPZP for other receptor, transporter, and ion channel targets was determined at 1 and 10 μM concentrations via a commercial screening service (Novascreen, GEN SEP I panel, Hanover, Md.).

[2] = test system: animal model of alcohol dependence; experiment: Operant alcohol and water self-administration in alcohol vapor-dependent and nondependent rats (Study 2); type: in vivo, rat; conditions: for alcohol self-administration (g/kg intake): 0, 5, 10, 20 mg/kg
Description: The effect of MPZP on drinking behavior was studied in an established animal model of alcohol dependence. […] (2006) 26:11324-11332; see also Roberts et al., Alcohol Clin. Exp. Res. (1996) 20:1289-1298; Overstreet et al., Alcohol Clin. Exp. Res. (2002) 26:1259-1268; Rimondini et al., FASEB J. (2002) 16:27-35; Valdez et al., Alcohol Clin. Exp. Res. (2002) 26:1494-1501 for related models].
Animals were permitted to self-administer alcohol or water orally in a concurrent, two-lever, free-choice contingency. A continuous reinforcement (fixed ratio-1) schedule was used in which each lever press was reinforced. Animals acquired alcohol self-administration using a variation of the previously described saccharin fading free-choice operant conditioning protocol [Samson et al., Alcohol Clin. Exp. Res. (1986) 10:436-442].
The present procedure culminates in pharmacologically relevant levels of alcohol self-administration, as defined by blood alcohol levels (BALs), in nondependent animals with limited access to alcohol over a 6-week period [Roberts et al., Alcohol Clin. Exp. Res. (1999) 23:1151-1157]. The modified procedure in the present study utilized a sweetened solution (“supersac”) containing 3% glucose and 0.125% saccharin (Sigma, St. Louis, Mo.) instead of water restriction and 0.2% saccharin to initiate and maintain operant responding [Funk et al., J. Neurosci. (2006) 26:11324-11332].
Animals respond for the sweetened solution within 1-2 training sessions, making water restriction unnecessary. Operant sessions during training were conducted 5 days per week between 0900 and 1500 (lights on at 0600). Operant sessions were 30 minutes in duration, except during the initial days of training in which sessions lasted up to 2 hours to permit acquisition of responding for the sweetened solution. Alcohol (10% w/v) then was added to the sweetened solution, and once mean responding stabilized (around one week) the glucose was removed from the solution, leaving only 0.125% saccharin and 10% w/v ethanol.
Animals then were maintained on 10% w/v ethanol for at least 3 weeks, and stable responders (±25% across three consecutive sessions) were evenly divided into two groups matched for baseline responding and exposed to intermittent ethanol vapors (dependent) or air (nondependent) as described below. A total of 16 rats (dependent, n=8; nondependent, n=8) were used for this experiment.
The self-administration system comprised test chambers (Coulbourn Instruments, Allentown, Pa.) contained within wooden sound-attenuated ventilated cubicles. The test chambers were equipped with two retractable levers located 4 cm above the grid floor and 4.5 cm to either side of a small stainless steel receptacle containing two drinking cups. […] Tap water was delivered to one dish, and the experimental solution (e.g., sweetened solution or alcohol) was delivered to the other dish. Fluid delivery and recording of operant self-administration were controlled by a computer. Lever presses were not recorded during the 0.5 second inter-response time-out interval when solution was being delivered.
A recent modification of the alcohol dependence model was made to reflect the natural progression of alcohol dependence in which alcohol exposure occurs in a series of extended exposures followed by periods of withdrawal [O′Dell et al., Alcohol Clin. Exp. Res. (2004) 28:1676-1682]. Chronic exposure to intermittent alcohol vapor exposure elicits even higher alcohol self-administration than continuous vapor (Ibid.), and the intermittent procedure therefore was used to induce dependence in trained animals in the present study. Vapors were delivered on a 14 hours on/10 hours off schedule for 4 weeks before post-vapor testing began.
Beginning 4 weeks after the onset of vapor exposure, post-vapor alcohol self-administration testing was conducted 2 times per week during acute withdrawal (6-8 hours after cessation of daily vapor exposure). […]

[3] = test system: defensive burying model of active anxiety-like behavior; conditions: doses similar to 3.6-27.5 mg/kg; Fekete et al. 2003; cited from earlier work

Compound: COCCN(CCOC)c1cc(C)nc2c(-c3ccc(OC)cc3C)c(C)nn12 [MPZP, N,N-bis(2-methoxyethyl)-3-(4-methoxy-2-methylphenyl)-2,5-dimethyl-pyrazolo[1,5-a]pyrimidin-7-amine]
- activity at 62 other receptors, transporters, and ion channels [1]: did not exhibit high activity
- ED50 ([2]; Rattus norvegicus, sc, dependent animals, acute withdrawal (6-8 hours), s.c. 1 hour before 30 minute session, read-out: ED50, reduction of alcohol self-administration (sigmoidal dose-response fit)): 10.7 mg/kg
- alcohol self-administration (g/kg intake) ([2]; dependent animals, 20 mg/kg vs vehicle): dose-dependently reduced; also recorded: significantly reduced
- alcohol responses ([2]; dependent animals, 5 mg/kg): 72±14
- alcohol responses ([2]; dependent animals, 10 mg/kg): 70±7
- alcohol responses ([2]; dependent animals, 20 mg/kg): 47±7
- water self-administration (responses) ([2]; dependent or nondependent animals): no effect
- alcohol self-administration (g/kg intake) ([2]; nondependent animals): not nondependent animals; also recorded: no effect
- alcohol responses ([2]; nondependent animals, 5 mg/kg): 37±5
- alcohol responses ([2]; nondependent animals, 10 mg/kg): 32±5
- alcohol responses ([2]; nondependent animals, 20 mg/kg): 33±4
- anxiety-like behavior in the defensive burying test [3]: reduced anxiety-like behavior
